Reference: US4061737A, “Method for stimulating release of prolactin” (American Home Products Corporation, priority 1976, dated 1977)

What was measured:
[1] = system: Male Charles River CD rats; assay: Prolactin plasma levels in rats 15 minutes after enkephalin injection (radioimmunoassay); type: in vivo, rat; conditions: for Change in prolactin levels upon injection (in words): 5 mg/kg., subcutaneous or intravenous
Method: Male Charles River CD rats were injected with the enkephalin (in saline) or saline alone either subcutaneously or intravenously via the femoral vein. Fifteen minutes later the animals were decapitated and blood collected (12 mg. versene and 6000 units of Trasylol added per tube). Each plasma sample was assayed for prolactin in quadruplicate by specific double antibody radioimmunoassays, using NIAMDD reagents and the procedure of Neill and Reichert, Endocrinology, 88, 548 (1971).

opiate receptor sites = conditions: cited from earlier work
rat pituitary cells = assay: Prolactin release in monolayer cultures of rat pituitary cells; type: cell-based; conditions: for Prolactin release versus control (in words): all levels from 5 ng/ml to 50 μg/ml; for Prolactin Release (mean ± SEM): 3 hours at 37° C., control 197 ± 13
Method: Monolayer cultures of enzymatically dispersed pituitary cells were prepared from male rats, using Eagle's minimal essential medium for growth. After incubation in triplicate dishes for 3 hours at 37° C. in 95% air: 5% CO2, the supernatant from each dish was assayed for prolactin in duplicate.

mouse vas deferens = conditions: cited from earlier work
guinea pig ileum = conditions: cited from earlier work
[2] = in vivo; cited from earlier work
[3] = Experiment 2, 5mg/kg. SC, 15 minutes after injection, control 40 ± 3

Compound | Change in prolactin levels upon injection (in words) [1] | Prolactin plasma level (mean ± SEM) ([1]; Experiment 1, 5mg/kg. SC, 15 minutes after injection, control 29 ± 3) | Prolactin plasma level (mean ± SEM) [1, 3] | Prolactin plasma level (mean ± SEM) ([1]; Experiment 4, 5mg/kg. IV, 15 minutes after injection, control 43 ± 7) | Prolactin plasma level (mean ± SEM) ([1]; Experiment 5, 5mg/kg. IV, 15 minutes after injection, control 31 ± 3) | Prolactin plasma level (mean ± SEM) ([1]; Experiment 6, 5mg/kg. IV, 15 minutes after injection, control 47 ± 5) | Prolactin plasma level (mean ± SEM) ([1]; Experiment 8, 5mg/kg. IV, 15 minutes after injection, control 63 ± 10) | Stereospecific binding of 3H-naloxone to guinea pig brain (in words) (opiate receptor sites) | Prolactin release versus control (in words) (rat pituitary cells) | Prolactin Release (mean ± SEM) (rat pituitary cells; enkephalin 5 ng/ml) | Prolactin Release (mean ± SEM) (rat pituitary cells; enkephalin 50 ng/ml) | Prolactin Release (mean ± SEM) (rat pituitary cells; enkephalin 500 ng/ml) | Prolactin Release (mean ± SEM) (rat pituitary cells; enkephalin 5 μg/ml) | Prolactin Release (mean ± SEM) (rat pituitary cells; enkephalin 50 μg/ml) | Contractions of mouse vas deferens (in words) (mouse vas deferens) | Contractions of guinea pig ileum (in words) (guinea pig ileum) | Prolactin levels (in words) [2] | Prolactin plasma level (mean ± SEM) ([1]; Experiment 3, 5mg/kg. IV, 15 minutes after injection, control 20 ± 1) | Prolactin plasma level (mean ± SEM) ([1]; rat, in vivo) | Prolactin release compared with leucine-enkephalin (in words) (rat pituitary cells; difference statistically significant at 50 μg/ml and 500 ng/ml)
CC(C)C[C@H](NC(=O)[C@H](Cc1ccccc1)NC(=O)CNC(=O)CNC(=O)[C@@H](N)Cc1ccc(O)cc1)C(=O)O [Leu-Enkephalin, H-Tyr-Gly-Gly-Phe-Leu-OH] | more variable | 40 ± 6 ng/mL | 40 ± 3 ng/mL | 29 ± 5 ng/mL | 55 ± 5 ng/mL | 59 ± 11 ng/mL | 61 ± 10 ng/mL | inhibit | significantly increased | 247 ± 7 ng/mL | 254 ± 14 ng/mL | 253 ± 18 ng/mL | 244 ± 10 ng/mL | 260 ± 15 ng/mL | inhibit | inhibit |  |  |  | 
CN1CC[C@]23c4c5ccc(O)c4O[C@H]2[C@@H](O)C=C[C@H]3[C@H]1C5 [morphine, reference compound] |  |  |  |  |  |  |  |  |  |  |  |  |  |  | also elicited by morphine | also elicited by morphine | can raise prolactin levels |  |  | 
CSCC[C@H](NC(=O)[C@H](Cc1ccccc1)NC(=O)CNC(=O)CNC(=O)[C@@H](N)Cc1ccc(O)cc1)C(=O)O [Met-Enkephalin, H-Tyr-Gly-Gly-Phe-Met-OH] | consistent, statistically significant increase |  | 49 ± 3 ng/mL |  |  |  |  | inhibit | significantly increased | 261 ± 15 ng/mL | 257 ± 14 ng/mL | 305 ± 14 ng/mL | 255 ± 10 ng/mL | 307 ± 8 ng/mL | inhibit | inhibit |  | 24 ± 1 ng/mL | 43 ± 3 | greater release of prolactin than leucine-enkephalin
